From patent publication US20260176313A1, “TGF-BETA-1 VACCINE” (IO BIOTECH APS, priority 2022, published 2026)

Columns and labels:
[1] = tested on: PBMCs from healthy donors; assay: In vitro IFNγ ELISPOT screening for immune responses to TGFb-1 peptides; type: cell-based, human; settings: for Positive Donors (out of 14): donors with significant response: Fisher test <0.01, ratio peptide:control >2, background subtracted spots >25; for Median Spots: median of background subtracted average spots for each donor across all 14 donors, 7 days after peptide stimulation
Procedure: FIG. 6. IFNγ ELISPOT identifies strong and frequent immune responses. Immune responses to TGFb-1 peptides were identified in PBMCs from 14 healthy donors. PBMCs were stimulated with the indicated TGFb-1 peptides and responses were analyzed after seven days by IFNγ ELISPOT. Significant responses (*) were defined by a Fisher exact P value<0.01, a ratio of peptide to control spots>2, and background subtracted spots>25. Peptides that elicited responses in the greatest number of donors were subsequently tested for the specificity of the response to TGFb-1.
(§1) For in vitro ELISPOT, peripheral blood […] cells (PBMCs) from healthy donors were pulsed with 20 μM of TGFb-derived peptides and 20 U/ml IL-2 in 24-well plates for 7 days before being used in an ELISPOT assay. The cells were placed in 96-well nitrocellulose ELISPOT plates (MultiScreen IP Filter Plate, MSIPN4W50; Millipore) pre-coated with interferon gamma (IFNγ) capture antibody (Mabtech). TGFb peptides are added to a final concentration of 5 μM, control stimulation (DMSO) added to control wells and plates are incubated at 37° C. for 16-20 hours. After the incubation the cells were washed off and secondary biotinylated Ab (Mabtech) was added for 2 hours at room temperature. Unbound secondary antibody was washed off and streptavidin conjugated alkaline phosphatase (AP) (Mabtech) was added for 1 hour at room temperature. Unbound conjugated enzyme was washed off and the assay was developed by adding BCIP/NBT substrate (Mabtech). Developed ELISPOT plates were analysed on CTL ImmunoSpot S6 Ultimate-V analyzer using Immunospot software v5.1.
(§2) In order to identify whether the low homology peptides selected based on sequence alignment were able to elicit immune responses in humans, the IFNγ ELISPOT assay was used. PBMCs from a total of 14 healthy donors were used to screen for immune responses. PBMCs were exposed to each peptide individually to induce a peptide-specific immune response and proliferation of peptide-specific T cells. Seven days later, the frequency of peptide-specific T cells were assayed by IFNγ ELISPOT. IFNγ ELISPOT identified several peptides that elicited strong (number of spots) and frequent (number of donors) immune responses, as shown in FIG. 6. Five peptides were selected on this basis (see Table 4). These five peptides were subsequently assayed for TGFb-1-selectivity by assaying for cross-reactive immune responses to TGFb-2 and TGFb-3 peptides in the IFNγ ELISPOT assay, as shown in FIG. 7 and FIG. 8.

[2] = tested on: PBMCs from healthy donors; assay: IFNγ ELISPOT recall assay for cross-reactive responses to homologous TGFb-2 and TGFb-3 peptides; type: cell-based, human; settings: for TGFb-1 selectivity / cross-reactivity of IFNγ ELISPOT immune response to homologous TGFb-2 and TGFb-3 peptides: donor PBMCs stimulated with TGFb-1 peptide, recall after seven days
Procedure: FIG. 7A-B. IFNγ ELISPOT to identify TGFb-1-selective immune responses. Donor PBMCs were stimulated with the indicated TGFb-1 peptides (Pep01-1, Pep04-1, Pep05-1, Pep08-1, Pep09-1 and Pep12-1) and after seven days were tested for a recall response by IFNγ ELISPOT assay using the same TGFb-1 peptide, or homologous TGFb-2 peptide (i.e. Pep01-2, Pep04-2, Pep05-2, Pep08-2, Pep09-2 or Pep12-2) or TGFb-3 peptide (i.e. Pep01-3, Pep04-3, Pep05-3, Pep08-3, Pep09-3 or Pep12-3). The highly homologous peptides Pep12-1, Pep12-2 and Pep12-3 were included as positive controls for detecting cross-reactive immune responses to TGFb-2 and TGFb-3. In FIG. 7A, for each peptide tested, boxplots on the left hand side correspond to responses using the same TGFb-1 peptide, boxplots in the middle correspond to responses using homologous TGFb-2 peptides and boxplots on the right hand side correspond to responses using homologous TGFb-3 peptides.
FIG. 8. IFNγ ELISPOT to identify TGFb-1-selective immune responses. The same data shown in FIG. 7 were plotted to show responses for individual peptides and donors. […] Significant responses (*) were defined by a Fisher exact P value<0.01, a ratio of peptide to control spots>2, and background subtracted spots>25.
as §1, §2

mice = assay: IFNγ ELISPOT assay of immune responses in mice vaccinated with synthetic long peptides; type: in vivo, mouse; settings: mice vaccinated with SLP; recall with minimal class I / class II peptides
Procedure: FIG. 9. TGFb-1 vaccine induces robust immune responses. Mice were vaccinated with two different synthetic long peptides (SLPs) and immune responses were analyzed by IFNγ ELISPOT assay. ELISPOT responses for individual mice are shown. Results for control peptides are clearly indicated.
(§3) For the MC38 tumor study, female C56/BL6 mice (Tacomic) were vaccinated with 100 μg of peptide (SEQ ID: 31 or SEQ ID NO: 34) prepared in DMSO and diluted in water to a total volume of 50 μl (per injection) before mixing with an equal volume of Montanide ISA51 VG ST adjuvant to form an emulsion. The vaccine formulation was administered subcutaneously (s.c.) at the tail base on Days 0, 7, and 14. MC38 tumor cells (2e5 per injection) were administered s.c. in the flank on day 0. Every 3 to 4 days, tumors were measured with a Vernier caliper and the tumor volume was calculated using the formula: V=L×W2/2, where V is tumor volume, L is the length of tumor (longer axis), and W is the width of the tumor (shorter axis).
A murine TGFb-1 vaccine was developed based on synthetic long peptides (SLPs) encoding predicted MHC class I and class II epitopes (SEQ ID NOs: 31-36 in Table 1 below). Pre-clinical studies of anti-TGFb therapies often fail to show any impact on tumor growth when administered as a monotherapy.

[3] = tested on: splenocytes loaded with the assay peptide (SLP1_Ib); assay: In vivo cytotoxicity assay; set-up: species or system mouse; settings: analysed 18 hours after i.v. injection of labeled splenocytes
Procedure: FIG. 11. TGFb-1 vaccine promotes targeted in vivo cell killing. An in vivo cytotoxicity assay was used to compare cell killing in mice vaccinated with SLP1 versus the class I epitope SLP1_Ib (SIYMFFNT). Vaccinated mice (duplicates) were injected with differentially labeled splenocytes loaded with the assay peptide (SLP1_Ib) or a control peptide. Cell killing was determined by comparing the recovery of the splenocytes using control-peptide-loaded splenocytes as an internal control for cell recovery. OVA peptide was included as a positive control.
The in vivo cytotoxicity assay was performed by injecting peptide-loaded splenocytes from untreated donor mice into vaccinated mice. Freshly isolated splenocytes were incubated with 5 μM peptide in media (RPMI, 10% Fetal Bovine Serum) for 1 hour at 37 C. Splencoytes were loaded with assay peptide (SLP1_Ib) or control peptide (P53, AIYKKSQHM) separately. […] Cell killing was analyzed after 18 hours by isolating splenocytes from injected mice and comparing the recovery of FarRed and Violet labeled cells by flow cytometry. Specific killing of assay pulsed splenocytes was calculated as follows: […]

MC38 tumor = assay: Analysis of tumor microenvironment (TME) by flow cytometry in MC38 tumor study; type: in vivo, mouse; settings: vaccinated Days 0, 7, 14, termination day 21
Procedure: FIG. 10A-D. TGFb-1 vaccine drives derived immune permissive changes in the TME. Tumor weight was compared between groups at experiment termination (day 21). TGFB-1 expression was assayed by latency associated peptide (LAP) staining.
as §3
Freshly isolated tumors were dissociated by collagenase digestion to yield a single cell suspension for flow cytometry analysis. Approximately 1 million cells were stained for analysis by flow cytometry using a Symphony Al flow cytometer (BD, Becton Dickinson) with the following antibodies, anti-mouse LAP BV421 (BD, 565638), anti-mouse CD4 BV605 (BD, 743156) and anti-mouse CD8 BV786 (BD, 563332). Data analysis was performed using FlowJo software.

Sequence	Positive Donors (out of 14) [1]	Median Spots [1]	TGFb-1 selectivity / cross-reactivity of IFNγ ELISPOT immune response to homologous TGFb-2 and TGFb-3 peptides [2]	also measured
DINGFTTGRRGDLATIHGMNRPFLLL [Pep07-1, polypeptide fragment of human TGFb-1, positions 235-260]	5	12	–	–
DMPPFFPSENAIPPTFYRPYFRIVREDVSAMEKNASNLV (DMPPFFPSENAIPPTFYRPYFRIVRFDVSAMEKNASNLV) [Pep01-2, homologous polypeptide fragment of human TGFb-2, positions 107-145, reference compound]	–	–	observed only once	Number of other donors in which cross reactivity was not observed ([2]; donors tested with Pep01-1/Pep01-2 peptide combination): 7
DSRDNTLQVDINGFTTGRRGDLATIHGMNRPFLLL [Pep06-1, polypeptide fragment of human TGFb-1, positions 226-260]	5	25	–	–
KDISHSIYMFFNTSDIREAVPEPPL [SLP1]	–	–	–	Immune response by IFNγ ELISPOT in vaccinated mice (mice): recognition of minimal peptides encoding class I and class II epitopes; Cytotoxic activity (specific killing) toward SLP1_Ib-loaded splenocytes in vaccinated mice [3]: results in cytotoxic activity toward cells loaded with the class I peptide antigen SLP1_Ib
LMVETHNEIYDKFKQSTHSIYMFF [Pep03-1, polypeptide fragment of human TGFb-1, positions 112-135]	6	16	–	–
LMVETHNEIYDKFKQSTHSIYMFFNTSEL [Pep02-1, polypeptide fragment of human TGFb-1, positions 112-140]	6	28	–	–
LMVETHNEIYDKFKQSTHSIYMFFNTSELREAVPEPVLLS [Pep01-1, polypeptide fragment of human TGFb-1, positions 112-151]	9	67	strong and frequent immune responses in healthy donors that are selective to TGFb-1	–
REAVPEPVLLSRAELRLLRL [Pep09-1, polypeptide fragment of human TGFb-1, positions 141-160]	7	37	strong and frequent immune responses in healthy donors that are selective to TGFb-1	–
REAVPEPVLLSRAELRLLRLKLKVEQHVE [Pep11-1, polypeptide fragment of human TGFb-1, positions 141-169]	5	14	–	–
SIYMFFNT [SLP1_Ib, TGFb-1 positions 130-137]	–	–	–	Cytotoxic activity (specific killing) toward SLP1_Ib-loaded splenocytes in vaccinated mice [3]: cytotoxic activity was higher
SLDTQYSKVLALYNQHNPGASASP [SLP2]	–	–	–	Immune response by IFNγ ELISPOT in vaccinated mice (mice): mainly induced class II response; CD4+ T cell infiltration in TME (MC38 tumor): significantly enhanced; CD8+ T cell infiltration in TME (MC38 tumor): remained unchanged
TGRRGDLATIHGMNRPFLLL [Pep08-1, polypeptide fragment of human TGFb-1, positions 241-260]	7	22	strong and frequent immune responses in healthy donors that are selective to TGFb-1	–
VKRKRIEAIRGQILSKLRLA [Pep12-1, reference compound]	–	–	induced immune responses that cross-reacted with homologous TGFb-2 and TGFb-3 peptides	TGFb-1 selectivity / cross-reactivity of IFNγ ELISPOT immune response to homologous TGFb-2 and TGFb-3 peptides ([2]; listed as Pep12): displayed cross-reactivity in all donors that exhibited significant responses to the TGFb-1 homolog
YDKFKQSTHSIYMFFNTSEL [Pep05-1, polypeptide fragment of human TGFb-1, positions 121-140]	7	23	strong and frequent immune responses in healthy donors that are selective to TGFb-1	–
YDKFKQSTHSIYMFFNTSELREAVPEPVLLS [Pep04-1, polypeptide fragment of human TGFb-1, positions 121-151]	7	34	strong and frequent immune responses in healthy donors that are selective to TGFb-1	–
YMFFNTSELREAVPEPVLLSRAELRLLRLKLKVEQHVE [Pep10-1, polypeptide fragment of human TGFb-1, positions 132-169]	5	8	–	–
